# Laboratory results: EP0593348A1, “Thiazolidine dione derivatives, process for their preparation and pharmaceutical compositions containing them” (ADIR ET COMPAGNIE, priority 1992, dated 1994)
# Read-outs that look alike come from different tables or passages of the source.
# How the values were obtained:
# [1] = system: souris ob/ob; assay: Hypoglycaemic activity in a non-insulin-dependent diabetes (NIDDM) model, ob/ob mice; format: in vivo; conditions: oral, 4 days, base 100, reached at the dose given
# From the text: A/ Etude de l'activité des composés de l'invention sur un modèle de diabète non insulino-dépendant (NIDDM).
# Les animaux (souris ob/ob) sont traités chaque jour, pendant 4 jours, en administrant par voie orale, les composés de l'invention en suspension dans une solution à 20 % de gomme du Sénégal. Avant et après traitement, soit à J0 et à J5, le sang est prélevé par ponction du sinus orbital et la glycémie est déterminée. Le tableau 1 présente les doses des différents produits à administrer pour obtenir le même effet hypoglycémiant (base 100).
# [2] = system: rats Zucker Fa/Fa mâles; assay: Model of reduced glucose tolerance with hyperinsulinaemia and hyperlipaemia, male Zucker Fa/Fa rats; format: in vivo; conditions: 5 mg/kg/jour oral for 10 days; for Glycémie (%) / Plasma insuline (%): blood on day 11, control = 100; for Poids ΔP% J₁₁-J₁: control = +100; for AGL (%): plasma free fatty acids; for AGL (%) / TG (%): control = 100; for TG (%): plasma triglycerides
# Protocol: B/ Etude de l'activité des composés de l'invention sur un modèle de tolérance au glucose diminuée associée à une hyperinsulinémie et une hyperlipémie .
# Les animaux (rats Zucker Fa/Fa mâles) sont traités, chaque jour, pendant 10 jours, en administrant, par voie orale, les composés de l'invention à la dose de 5 mg/kg/jour en suspension dans une solution à 20 % de gomme du Sénégal. Le 11ème jour, les animaux sont sacrifiés et le sang recueilli afin de déterminer la glycémie, les triglycérides plasmatiques et l'insuline immuno-réactive. D'autre part, les animaux sont pesés avant et après traitement.
# Dans ces conditions, les composés de l'invention n'ont pas d'influence sur le taux de glucose circulant mais diminuent le taux de triglycérides (TG) et d'acides gras libres plasmatiques (AGL) ainsi que celui de l'insuline immuno-réactive. Cette activité est égale ou supérieure à celle d'autres dérivés de thiazolidinedione de référence.
# [3] = system: rats SDCD mâles; conditions: rat, in vivo
# From the text: Administrés per os à des rats SDCD mâles pesant 175 g les produits sont sans effet sur les éléments figurés du sang et le volume plasmatique, à la différence de la pioglitazone : […]
structure (smiles),measurement,setting,value
"COc1ccc(Cl)cc1C(=O)NCc1ccc(CC2SC(=O)NC2=O)cc1 (racemic) [Exemple 36, (R,S) 5-{4-[(5-chloro-2-méthoxybenzamido)méthyl]benzyl}thiazolidine-2,4-dione]",Pouvoir hypoglycémiant,[1],100
"COc1ccc(Cl)cc1C(=O)NCCc1ccc(CC2SC(=O)NC2=O)cc1 (stereo not drawn) [Exemple 1, 5-{4-[2-(2-méthoxy 5-chlorobenzamido) éthyl]benzyl} thiazolidine 2,4-dione]",Pouvoir hypoglycémiant,[1],100
same,Glycémie (%),[2],113%
same,Plasma insuline (%),[2],71%
same,Poids ΔP% J₁₁-J₁,[2],+112%
same,AGL (%),[2],83%
same,TG (%),[2],94%
same,Globules blancs,[3]; 100 mg/kg,- 6%
same,Globules rouges,[3]; 100 mg/kg,- 2%
same,Hématocrite,[3]; 100 mg/kg,+ 11%
same,Hémoglobine,[3]; 100 mg/kg,+ 11%
same,Globules blancs,[3]; 250 mg/kg,- 4%
same,Globules rouges,[3]; 250 mg/kg,- 11%
same,Hématocrite,[3]; 250 mg/kg,+ 4%
same,Hémoglobine,[3]; 250 mg/kg,+ 4%
"CC1(COc2ccc(CC3SC(=O)NC3=O)cc2)CCCCC1 (stereo not drawn) [Ciglitazone, reference compound]",Pouvoir hypoglycémiant,[1],100
"O=C1NC(=O)C(Cc2ccc(CCNC(=O)c3ccco3)cc2)S1 (racemic) [Exemple 14, (R,S) 5-{4-[2-(fur-2-ylcarbonylamino)éthyl]benzyl}thiazolidine-2,4-dione]",Pouvoir hypoglycémiant,[1],100
"CN(C)c1ccccc1C(=O)NCCc1ccc(CC2SC(=O)NC2=O)cc1 (racemic) [Exemple 28, (R,S) 5-{4-[2-(2-diméthylaminobenzamido)éthyl]benzyl}thiazolidine-2,4-dione]",Pouvoir hypoglycémiant,[1],100
same,Glycémie (%),[2],99%
same,Plasma insuline (%),[2],75%
same,Poids ΔP% J₁₁-J₁,[2],+103%
same,AGL (%),[2],110%
same,TG (%),[2],89%
"O=C1NC(=O)C(Cc2ccc(CCNC(=O)c3cnccn3)cc2)S1 (racemic) [Exemple 25, (R,S) 5-{4-[2-(pyrazin-2-ylcarbonylamino)éthyl]benzyl}thiazolidine-2,4-dione]",Pouvoir hypoglycémiant,[1],100
"O=C1NC(=O)C(Cc2ccc(CCNC(=O)c3ccccc3O)cc2)S1 (racemic) [Exemple 3, (R,S) 5-{4-[2-(salicyloyamino) éthyl]benzyl} thiazolidine-2,4-dione]",Pouvoir hypoglycémiant,[1],100
"O=C(CC(c1ccccc1)c1ccccc1)NCCc1ccc(CC2SC(=O)NC2=O)cc1 (racemic) [Exemple 6, (R,S) 5-{4-[2-(3,3-diphénylpropionamido)éthyl]benzyl}thiazolidine-2,4-dione]",Pouvoir hypoglycémiant,[1],100
"COc1ccc(OC)c(C(=O)NCCc2ccc(CC3SC(=O)NC3=O)cc2)c1 (racemic) [Exemple 7, (R,S) 5-{4-[2-(2,5-diméthoxybenzamido)éthyl]benzyl}thiazolidine-2,4-dione]",Pouvoir hypoglycémiant,[1],100
"CC(C)(C)c1cc(OCCc2ccc(CC3SC(=O)NC3=O)cc2)cc(C(C)(C)C)c1O (racemic) [Exemple 41, (R,S) 5-{4-[2-(3,5-di-tert-butyl-4-hydroxyphénoxy)éthyl]benzyl} thiazolidine-2,4-dione]",Pouvoir hypoglycémiant,[1],100
"COc1ccc(Cl)cc1C(=O)NCCCc1ccc(CC2SC(=O)NC2=O)cc1 (racemic) [Exemple 33, (R,S) 5-{4-[3-(2-méthoxy-5-chlorobenzamido)propyl]benzyl}thiazolidine-2,4-dione]",Pouvoir hypoglycémiant,[1],100
"COc1ccc(Cl)cc1C(=O)NC[C@@H](O)c1ccc(C[C@H]2SC(=O)NC2=O)cc1 [Exemple 40, (R,S) 5-{4-[1-hydroxy-2-(5-chloro-2-méthoxybenzamido)éthyl]benzyl} thiazolidine-2,4-dione]",Pouvoir hypoglycémiant,[1],100
"CCc1ccc(CCOc2ccc(CC3SC(=O)NC3=O)cc2)nc1 (stereo not drawn) [Pioglitazone, reference compound]",Glycémie (%),[2],115%
same,Plasma insuline (%),[2],49%
same,Poids ΔP% J₁₁-J₁,[2],+320%
same,AGL (%),[2],57%
same,TG (%),[2],35%
same,Globules blancs,[3]; 100 mg/kg,- 46%
same,Globules rouges,[3]; 100 mg/kg,- 37%
same,Hématocrite,[3]; 100 mg/kg,- 26%
same,Hémoglobine,[3]; 100 mg/kg,- 29%
"COc1ccc(C=CC(=O)NCCc2ccc(CC3SC(=O)NC3=O)cc2)cc1OC (racemic) [Exemple 43, (R,S) 5-{4-[2-(3-(3,4-diméthoxyphényl)prop-2-énoylamino)éthyl]benzyl} thiazolidine-2,4-dione]",Pouvoir hypoglycémiant,[1],100
"Cc1cc(C(=O)NCCc2ccc(CC3SC(=O)NC3=O)cc2)no1 (racemic) [Exemple 15, (R,S) 5-{4-[2-(5-méthyl 1,2-oxazol-3-ylcarbonylamino)éthyl]benzyl} thiazolidine-2,4-dione]",Pouvoir hypoglycémiant,[1],100
"O=C1NC(=O)C(Cc2ccc(CCNC(=O)c3cccs3)cc2)S1 (racemic) [Exemple 35, (R,S) 5-{4-[2-(thién-2-ylcarbonylamino)éthyl]benzyl}thiazolidine-2,4-dione]",Pouvoir hypoglycémiant,[1],100
"Cc1cccc(C)c1C(C(=O)NCCc1ccc(CC2SC(=O)NC2=O)cc1)c1c(C)cccc1C (racemic) [Exemple 46, (R,S) 5-{4-[2-(2,2-bis(2,6-diméthylphényl)acétylamino)éthyl]benzyl} thiazolidine-2,4-dione]",Pouvoir hypoglycémiant,[1],100
"O=C1NC(=O)C(Cc2ccc(CCN3C(=O)c4ccccc4C3=O)cc2)S1 (stereo not drawn) [Exemple 4, 5-{4-[2-(phtalimido)éthyl]benzyl}thiazolidine-2,4-dione]",Pouvoir hypoglycémiant,[1],100
same,Glycémie (%),[2],108%
same,Plasma insuline (%),[2],72%
same,Poids ΔP% J₁₁-J₁,[2],+132%
same,AGL (%),[2],108%
same,TG (%),[2],78%
"O=C(C=Cc1ccc2c(c1)OCO2)NCCc1ccc(CC2SC(=O)NC2=O)cc1 (racemic) [Exemple 44, (R,S) 5-{4-[2-(3-(3,4-méthylènedioxyphényl)prop-2-énoylamino)éthyl]benzyl} thiazolidine-2,4-dione]",Pouvoir hypoglycémiant,[1],100
"O=C1NC(=O)C(Cc2ccc(CCNC(=O)C3c4ccccc4Oc4ccccc43)cc2)S1 (racemic) [Exemple 45, (R,S) 5-{4-[2-(xanthén-9-ylcarbonylamino)éthyl]benzyl}thiazolidine-2,4-dione]",Pouvoir hypoglycémiant,[1],100
